US20230146395A1, “Substituted Pyrimidines and Uses Thereof” (Verge Analytics, Inc., priority 2020, published 2023)
Where a name gives a salt, the structure may show the parent alone.

These compounds were tested against T1, Full length human recombinant PIKFYVE (Homo sapiens, UniProt Q9Y2I7) (assay: Inhibition of PIKfyve (microfluidic electrophoresis kinase assay, PI3P/PS substrate)). Settings: 12 concentrations.
T1 construct: Full length human recombinant PIKFYVE; purchased Carna Biosciences (Kobe, Japan); host or cells: baculovirus expression system
T1 sequence (Q9Y2I7 whole entry): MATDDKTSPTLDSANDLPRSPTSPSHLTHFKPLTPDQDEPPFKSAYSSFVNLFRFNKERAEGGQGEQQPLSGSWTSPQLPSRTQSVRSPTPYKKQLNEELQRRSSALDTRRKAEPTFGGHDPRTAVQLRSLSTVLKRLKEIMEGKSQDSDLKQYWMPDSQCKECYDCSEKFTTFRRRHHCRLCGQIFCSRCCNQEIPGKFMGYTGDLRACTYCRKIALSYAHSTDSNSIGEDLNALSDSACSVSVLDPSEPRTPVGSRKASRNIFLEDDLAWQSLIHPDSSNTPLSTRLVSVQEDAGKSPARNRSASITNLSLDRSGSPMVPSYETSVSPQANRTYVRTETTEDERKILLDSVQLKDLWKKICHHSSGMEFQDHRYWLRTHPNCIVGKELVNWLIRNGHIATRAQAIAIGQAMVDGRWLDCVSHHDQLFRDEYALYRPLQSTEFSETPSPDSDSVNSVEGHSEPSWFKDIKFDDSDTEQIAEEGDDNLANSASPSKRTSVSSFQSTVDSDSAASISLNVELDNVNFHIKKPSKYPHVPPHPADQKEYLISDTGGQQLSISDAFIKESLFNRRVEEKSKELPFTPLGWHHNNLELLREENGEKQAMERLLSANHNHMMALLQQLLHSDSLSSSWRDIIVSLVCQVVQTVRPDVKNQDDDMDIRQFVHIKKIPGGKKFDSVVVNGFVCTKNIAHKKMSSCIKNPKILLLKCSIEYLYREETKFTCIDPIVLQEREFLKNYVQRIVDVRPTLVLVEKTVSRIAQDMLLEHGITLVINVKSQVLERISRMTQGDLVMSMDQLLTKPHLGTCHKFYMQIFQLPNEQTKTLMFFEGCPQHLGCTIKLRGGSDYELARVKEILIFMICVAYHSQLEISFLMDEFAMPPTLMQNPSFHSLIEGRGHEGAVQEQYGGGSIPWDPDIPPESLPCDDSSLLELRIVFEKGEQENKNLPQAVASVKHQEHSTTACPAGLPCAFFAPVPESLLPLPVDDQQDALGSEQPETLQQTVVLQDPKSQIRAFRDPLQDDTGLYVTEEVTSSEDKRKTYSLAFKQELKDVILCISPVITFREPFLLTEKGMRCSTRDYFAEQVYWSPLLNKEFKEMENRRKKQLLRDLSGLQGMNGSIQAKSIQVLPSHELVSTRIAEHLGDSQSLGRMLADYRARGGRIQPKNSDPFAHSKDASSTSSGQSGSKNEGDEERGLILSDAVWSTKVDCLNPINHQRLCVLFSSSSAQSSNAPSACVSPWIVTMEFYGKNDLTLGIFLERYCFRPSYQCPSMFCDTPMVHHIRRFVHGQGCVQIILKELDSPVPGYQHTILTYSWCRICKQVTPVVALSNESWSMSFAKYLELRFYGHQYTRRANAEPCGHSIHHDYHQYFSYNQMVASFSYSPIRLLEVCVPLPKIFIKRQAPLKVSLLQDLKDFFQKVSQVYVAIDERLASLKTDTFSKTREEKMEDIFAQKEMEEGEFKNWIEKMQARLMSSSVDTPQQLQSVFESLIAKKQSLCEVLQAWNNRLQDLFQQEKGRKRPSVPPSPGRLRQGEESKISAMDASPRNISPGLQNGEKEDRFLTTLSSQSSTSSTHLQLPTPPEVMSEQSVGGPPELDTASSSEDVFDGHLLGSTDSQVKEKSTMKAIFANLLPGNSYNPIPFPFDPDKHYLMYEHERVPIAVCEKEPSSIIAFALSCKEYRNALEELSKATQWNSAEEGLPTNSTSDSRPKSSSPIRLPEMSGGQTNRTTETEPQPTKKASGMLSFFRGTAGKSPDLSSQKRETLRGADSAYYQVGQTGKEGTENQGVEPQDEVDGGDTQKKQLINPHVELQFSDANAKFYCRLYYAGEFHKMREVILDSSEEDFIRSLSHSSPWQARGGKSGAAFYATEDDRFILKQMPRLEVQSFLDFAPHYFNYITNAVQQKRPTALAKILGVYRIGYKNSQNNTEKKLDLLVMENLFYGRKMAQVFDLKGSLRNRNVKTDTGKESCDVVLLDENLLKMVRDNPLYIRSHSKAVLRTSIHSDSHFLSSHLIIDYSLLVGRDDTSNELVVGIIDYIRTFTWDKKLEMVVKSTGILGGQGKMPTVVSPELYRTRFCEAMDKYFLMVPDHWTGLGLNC
Format: biochemical
In short: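 Percent inhibition, from 12 concentrations, was derived from the product/(substrate+product) peak ratio separated by microfluidic electrophoresis, normalized to DMSO-only and enzyme-free controls. Reactions ran 3 h at room temperature: 2 nM N-terminal GST-PIKFYVE, 1 μM fluorescent PI3P in PS vesicles, […], HEPES pH 7.5, MgCl2/MnCl2.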
In the case of `Cc1cc(-c2oc3c(N4CCOCC4)nc(-n4ccc(-c5ccccc5)n4)nc3c2C)[nH]n1` [Compound 182, 7-methyl-6-(3-methyl-1H-pyrazol-5-yl)-4-morpholino-2-(3-phenylpyrazol-1-yl)furo[3,2-d]pyrimidine], the IC50 is reported as 84.2 nM. With `Cc1cc(-c2cc(Nc3nc(N4CCOCC4)c4oc(-c5ccncc5)cc4n3)[nH]n2)ccn1` [Compound 22, N-(3-(2-methylpyridin-4-yl)-1H-pyrazol-5-yl)-4-morpholino-6-(pyridin-4-yl)furo[3,2-d]pyrimidin-2-amine hydrochloride] the IC50 was 27 nM. In the case of `Cc1cc(-c2cc3nc(-n4cc(-c5ccccc5)cn4)nc(N4CCOCC4)c3o2)nn1CCN(C)C` [Compound 183, N,N-dimethyl-2-[5-methyl-3-[4-morpholino-2-(4-phenylpyrazol-1-yl)furo[3,2-d]pyrimidin-6-yl]pyrazol-1-yl]ethanamine], the IC50 is reported as 11.8 nM. `CN(C)CCCNC(=O)c1cc2nc(-n3cc(-c4ccccc4)cn3)nc(N3CCOCC3)c2o1` [Compound 168, N-(3-(dimethylamino)propyl)-4-morpholino-2-(4-phenyl-1H-pyrazol-1-yl)furo[3,2-d]pyrimidine-6-carboxamide] showed an IC50 of 62.1 nM. `c1ccc(-c2cnn(-c3nc(N4CCOCC4)c4oc(-c5ccncc5)cc4n3)c2)cc1` [Compound 41, 4-morpholino-2-(4-phenylpyrazol-1-yl)-6-(4-pyridyl)furo[3,2-d]pyrimidine, hydrogen chloride] gave an IC50 of 34 nM. Work on `Cn1ccc(-c2cc3nc(-n4ccc(-c5ccccc5)n4)nc(N4CCOCC4)c3o2)n1` [Compound 191, 6-(1-methylpyrazol-3-yl)-4-morpholino-2-(3-phenylpyrazol-1-yl)furo[3,2-d]pyrimidine] yielded an IC50 of 51.9 nM. `Cc1cccc(-c2cc(Nc3nc(N4CCOCC4)c4oc(C5CCN(C)C5)cc4n3)[nH]n2)c1` (stereo not drawn) [Compound 39, 6-(1-methylpyrrolidin-3-yl)-4-morpholino-N-(3-(m-tolyl)-1H-pyrazol-5-yl)furo[3,2-d]pyrimidin-2-amine hydrochloride] was tested, and the IC50 was 2560 nM. In the case of `c1ccc(-c2cc(Nc3nc(N4CCOCC4)c4oc(CN5CCCC5)cc4n3)[nH]n2)cc1` [Compound 16], the IC50 is reported as 1000 nM. With `COc1cccc(-c2cc(Nc3nc(N4CCOCC4)c4oc(-c5ccncc5)cc4n3)[nH]n2)c1` [Compound 24, N-[5-(3-methoxypheny1)-1H-pyrazol-3-yl]-4-morpholino-6-(4-pyridyl)furo[3,2-d]pyrimidin-2-amine, hydrogen chloride] the IC50 was 60 nM. Work on `Cc1cccc(-c2cnn(-c3nc(N4CCOCC4)c4oc(-c5ccncc5)cc4n3)c2)c1` [Compound 42, 4-morpholino-6-(pyridin-4-yl)-2-(4-(m-tolyl)-1H-pyrazol-1-yl)furo[3,2-d]pyrimidine] yielded an IC50 of 9 nM. In the case of `c1csc(-c2cc(Nc3nc(N4CCOCC4)c4oc(-c5ccncc5)cc4n3)[nH]n2)c1` [Compound 75, 4-morpholino-6-(pyridin-4-yl)-N-(5-(thiophen-2-yl)-1H-pyrazol-3-yl)furo[3,2-d]pyrimidin-2-amine, hydrogen chloride], the IC50 is reported as 1.4 nM. `c1ccc(-c2ccn(-c3nc(N4CCOCC4)c4oc(-c5ccncc5)cc4n3)n2)cc1` [Compound 158, 4-morpholino-2-(3-phenylpyrazol-1-yl)-6-(4-pyridyl)furo[3,2-d]pyrimidine] gave an IC50 of 160 nM. `C[C@@H](NC(=O)c1cc2nc(Nc3cc(-c4ccccc4)n[nH]3)nc(N3CCOCC3)c2o1)C1CC1` [Compound 64, (R)—N-(1-cyclopropylethyl)-4-morpholino-2-((5-phenyl-1H-pyrazol-3-yl)amino)furo[3,2-d]pyrimidine-6-carboxamide hydrochloride] gave an IC50 of 0.9 nM. In the case of `Cc1cc(-c2cc3nc(-n4ccc(-c5ccccc5)n4)nc(N4CCOCC4)c3o2)nn1CCN(C)C` [Compound 177, N,N-dimethyl-2-[5-methyl-3-[4-morpholino-2-(3-phenylpyrazol-1-yl)furo[3,2-d]pyrimidin-6-yl]pyrazol-1-yl]ethanamine], the IC50 is reported as 41.3 nM. In the case of `Cc1cccc(-c2cnn(-c3nc(N4CCOCC4)c4oc(-c5cc(C)n(CCN6C(=O)C=CC6=O)n5)cc4n3)c2)c1` [Compound 202, 1-[2-[5-methyl-3-[4-morpholino-2-[4-(m-tolyl)pyrazol-1-yl]furo[3,2-d]pyrimidin-6-yl]pyrazol-1-yl]ethyl]pyrrole-2,5-dione], the IC50 is reported as 1.4 nM. `c1cc(-c2cc3nc(Nc4cc(C5CCCC5)n[nH]4)nc(N4CCOCC4)c3o2)ccn1` [Compound 74, N-(5-cyclopentyl-1H-pyrazol-3-yl)-4-morpholino-6-(pyridin-4-yl)furo[3,2-d]pyrimidin-2-amine, hydrogen chloride] gave an IC50 of 224 nM. `COCCN(C)Cc1cc2nc(Nc3cc(-c4ccccc4)n[nH]3)nc(N3CCOCC3)c2o1` [Compound 17] gave an IC50 of 303 nM. Work on `CC(C)c1cc(Nc2nc(N3CCOCC3)c3oc(-c4ccncc4)cc3n2)[nH]n1` [Compound 77, N-(5-isopropyl-1H-pyrazol-3-yl)-4-morpholino-6-(pyridin-4-yl)furo[3,2-d]pyrimidin-2-amine, hydrogen chloride] yielded an IC50 of 175 nM. With `CNC(=O)c1cc2nc(-n3ccc(-c4cccc(C)c4)n3)nc(N3CCOCC3)c2o1` [Compound 92, N-methyl-4-morpholino-2-(3-(m-tolyl)-1H-pyrazol-1-yl)furo[3,2-d]pyrimidine-6-carboxamide] the IC50 was 91.5 nM. `CN1CCCC(c2cc3nc(Nc4cc(-c5ccncc5)n[nH]4)nc(N4CCOCC4)c3o2)C1` (stereo not drawn) [Compound 37] showed an IC50 of no less than 10000 nM. With `O=C(NCC1COC1)c1cc2nc(-n3cc(-c4ccccc4)cn3)nc(N3CCOCC3)c2o1` [Compound 164, 4-morpholino-N-(oxetan-3-ylmethyl)-2-(4-phenyipyrazol-1-yl)furo[3,2-d]pyrimidine-6-carboxamide] the IC50 was 162 nM. For `Cc1cc(-c2ccn(-c3nc(N4CCOCC4)c4oc(-c5ccccn5)cc4n3)n2)ccn1` [Compound 188, 2-[3-(2-methyl-4-pyridyl)pyrazol-1-yl]-4-morpholino-6-(2-pyridyl)furo[3,2-d]pyrimidine], the IC50 was 2830 nM. `Cc1cccc(-c2cc(Nc3nc(N4CCOCC4)c4oc(-c5ccncc5)cc4n3)[nH]n2)n1` [Compound 20, N-[5-(6-methyl-2-pyridyl)-1H-pyrazol-3-yl]-4-morpholino-6-(4-pyridyl)furo[3,2-d]pyrimidin-2-amine, hydrogen chloride] gave an IC50 of 9 nM. With `O=C(c1cc2nc(Nc3cc(-c4ccccc4)n[nH]3)nc(N3CCOCC3)c2o1)N1CCC1` [Compound 53, azetidin-1-yl(4-morpholino-2-((3-phenyl-1H-pyrazol-5-yl)amino)furo[3,2-d]pyrimidin-6-yl)methanone hydrochloride] the IC50 was 60 nM. `c1ccc(-n2cc(Nc3nc(N4CCOCC4)c4oc(-c5ccncc5)cc4n3)cn2)cc1` [Compound 49, 4-morpholino-N-(1-phenylpyrazol-4-yl)-6-(4-pyridyl)furo[3,2-d]pyrimidin-2-amine, hydrogen chloride] showed an IC50 of 21 nM. Compound `c1ccc(-c2cc(Nc3nc(N4CCOCC4)c4occc4n3)n[nH]2)cc1` [Compound 142, 4-morpholino-N-(5-phenyl-1H-pyrazol-3-yl)furo[3,2-d]pyrimidin-2-amine] has an IC50 of 145 nM. Work on `O=C(NCC1CC1)c1cc2nc(-n3cc(-c4ccccc4)cn3)nc(N3CCOCC3)c2o1` [Compound 116, N-(cyclopropylmethy 1)-4-morpholino-2-(4-phenyl-1H-pyrazol-1-yl)furo[3,2-d]pyrimidine-6-carboxamide] yielded an IC50 of 49.3 nM. Compound `Cc1cccc(-c2ccn(-c3nc(N4CCOCC4)c4oc(-c5cn[nH]c5)cc4n3)n2)c1` [Compound 219, 4-morpholino-2-[3-(m-tolyl)pyrazol-1-yl]-6-(1H-pyrazol-4-yl)furo[3,2-d]pyrimidine] has an IC50 of 0.4 nM. For `c1ccc(-c2ccn(-c3nc(N4CCOCC4)c4oc(-c5ccccn5)cc4n3)n2)cc1` [Compound 155, 4-morpholino-2-(3-phenylpyrazol-1-yl)-6-(2-pyridyl)furo[3,2-d]pyrimidine], the IC50 was 70.6 nM. Compound `CCNC(=O)c1cc2nc(-n3cc(-c4ccccc4)cn3)nc(N3CCOCC3)c2o1` [Compound 154, N-ethyl-4-morpholino-2-(4-phenylpyrazol-1-yl)furo[3,2-d]pyrimidine-6-carboxamide] has an IC50 of 77.3 nM. `Cc1cccc(-c2ccn(-c3nc(N4CCOCC4)c4oc(-c5ccccn5)cc4n3)n2)n1` [Compound 187, 2-[3-(6-methyl-2-pyridyl)pyrazol-1-yl]-4-morpholino-6-(2-pyridyl)furo[3,2-d]pyrimidine] was tested, and the IC50 was 2390 nM. Work on `Clc1cccc(-c2ccn(-c3nc(N4CCOCC4)c4oc(-c5ccccn5)cc4n3)n2)c1` [Compound 185, 2-[3-(3-chlorophenyl)pyrazol-1-yl]-4-morpholino-6-(2-pyridyl)furo[3,2-d]pyrimidine] yielded an IC50 of 10.1 nM. Compound `Cc1cc(Nc2nc(N3CCOCC3)c3occc3n2)[nH]n1` [Compound 9, N-(5-methyl-1H-pyrazol-3-yl)-4-morpholino-furo[3,2-d]pyrimidin-2-amine, hydrogen chloride] has an IC50 greater than 10000 nM. `CNC(=O)c1cc2nc(Nc3cc(CC4CC4)n[nH]3)nc(N3CCOCC3)c2o1` [Compound 79, 2-((5-(cyclopropylmethyl)-1H-pyrazol-3-yl)amino)-N-methyl-4-morpholinofuro[3,2-d]pyrimidine-6-carboxamide, hydrogen chloride] showed an IC50 of no less than 10000 nM. For `CCNC(=O)c1cc2nc(-n3cc(-c4cccc(C)c4)cn3)nc(N3CC(F)(F)OC(F)(F)C3)c2o1` [Compound 134, N-ethyl-4-(2,2,6,6-tetrafluoromorpholino)-2-(4-(m-tolyl)-1H-pyrazol-1-yl)furo[3,2-d]pyrimidine-6-carboxamide], the IC50 was greater than 20000 nM. `Cc1ccc(-c2cc(Nc3nc(N4CCOCC4)c4oc(-c5ccncc5)cc4n3)[nH]n2)cc1` [Compound 4, 4-morpholino-N-[5-(p-tolyl)-1H-pyrazol-3-yl]-6-(4-pyridyl)furo[3,2-d]pyrimidin-2-amine, hydrogen chloride] was tested, and the IC50 was 30.9 nM.
